The text below walks through data of patent publication US8652769B2, “Methods for separating frozen-thawed spermatozoa into X-chromosome bearing and Y-chromosome bearing populations” (XY, LLC, priority 2000, dated 2014).

This data set has as its system oocytes inseminated with separated stained spermatozoa from frozen-thawed sperm. Briefly: In-vitro fertilization: cleavage and development of oocytes inseminated with stained, flow-sorted frozen-thawed bull sperm. It is filed as cell-based, bovine. The procedure: As an example of an application of embodiments of the invention involving frozen bull sperm in IVF applications, sperm samples from two bulls were stained either at a concentration of 224 μM or 2,240 of Hoechst 33342 and the stained spermatozoa were then bulk sorted on a flow cytometer at 1000 sperm/sec into 2% egg yolk citrate. Spermatozoa were inseminated at 1×10^6/mL and embryos were cultured in the mSOF system described by Tervit H. R. et al., Successful Culture In-Vitro of Sheep and Cattle Ova, J. Reprod. Fertil., 30:493-497([…]), hereby incorporated by reference. Three replicates were carried out for bull 1 and one replicate for bull 2 (Table 1). With conventional procedures, blastocyst production with separated spermatozoa can be 70-90% of controls with spermatozoa that have not been separated.
As can be understood, it can take much longer to stain frozen-thawed sperm so that they can be resolved during separation at the lower stain concentration than at 10×stain concentration. The differences observed in cleavage rates between the two stain concentrations most likely can be attributed to the extended incubation time at the lower stain level.

The mark [1] stands for this setting: Bull 1, 3 ejaculates, Hoechst 33342 conc. 224 μM, staining time required 190 min, 368 oocytes.
The mark [2] stands for this setting: Bull 1, 3 ejaculates, Hoechst 33342 conc. 2240 μM, staining time required 60 min, 373 oocytes.
Setting [3] is: Bull 2, 1 ejaculate, Hoechst 33342 conc. 224 μM, staining time required 190 min, 86 oocytes.
Where [4] appears, read: Bull 2, 1 ejaculate, Hoechst 33342 conc. 2240 μM, staining time required 60 min, 81 oocytes.

Marks after values point to notes of the source that are not given here.

Take `CCOc1ccc(-c2nc3ccc(-c4nc5ccc(N6CCN(C)CC6)cc5[nH]4)cc3[nH]2)cc1` [Hoechst 33342]: the “% blastocysts/oocyte” value was 17% under setting [1], 23% under setting [2], 0^a % under setting [3] and 16^b % under setting [4]. The “% cleave” value under setting [1] was 44^a %, the “% cleave” value under setting [2] is recorded as 60^b %, the “% cleave” value under setting [3] is recorded as 23^a % and the “% cleave” value under setting [4] is on record as 42^b %. In addition, the “effect of increased stain concentration on cleavage or embryonic development” value (stain concentration up to at least 2240 μM) is listed as “does not appear to have a depressive effect”.
